We go through 24 compounds from ChEMBL document CHEMBL1201862, “PubChem BioAssay data set” (2004).

Test systems include DLD-1; DMS-273; HOP-18; LXFL 529; SNB-78; XF498; DMS-114; M19-MEL; RXF 631.
Holding throughout (test): inhibition of tumour cell growth, NCI panel, 48 h

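Exposure lasted 48 hours, with cells grown in 96-well plates and compounds tested at five concentrations. GI50 = concentration required for 50% inhibition of growth.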 Activity calls are given as the source filed them. Cut-off read from the data, not from the text of the source: active = GI50 up to about 1.1 µM and inactive = higher. Bounds are passed on as bounds.

In the case of `NC(=O)c1ccccc1NC(=O)C(=O)C(C(=O)c1ccc(Cl)c(Cl)c1)C1OC(=O)c2ccccc21` (centres undefined), the GI50 is 43.3 µM (inactive) in the assay on DLD-1; 36.2 µM (inactive) in the assay with DMS-273; 33.5 µM (inactive) in the assay on HOP-18; 29.9 µM (inactive) with LXFL 529; 39.2 µM (inactive) in the assay with SNB-78; > 100 µM (inactive) in the assay on XF498.
With `CCN(CC)C(=S)SCC(=O)Nc1nc2c(s1)CCCC2`, the GI50 with DLD-1 was 94 µM (inactive); in the assay with DMS-114, 67.8 µM (inactive); in the assay on DMS-273, 88.5 µM (inactive); in the assay with LXFL 529, 47.2 µM (inactive); with M19-MEL, 52.7 µM (inactive); in the assay with SNB-78, > 100 µM (inactive). For the same compound, in the assay on XF498, the GI50 was 18.7 µM (inactive).
`CCC(=O)OC1CCn2c1nc1c2C(=O)C(C)=C(NC(C)=O)C1=N` (centres undefined): the GI50 is 1.42 µM (inactive) in the assay with DLD-1; 1.5 µM (inactive) in the assay on DMS-114; 1.67 µM (inactive) in the assay on DMS-273; 1.8 µM (inactive) with HOP-18; 0.186 µM (active) in the assay with M19-MEL; 2.6 µM (inactive) with SNB-78. Also, the GI50 in the assay with XF498 is 2.65 µM (inactive).
Consider `COC(=O)c1c2cccccc-2c(Cc2c3cccccc-3c(C(=O)OC)c2O)c1O`, for which the GI50 with DLD-1, in the assay on DMS-114, with DMS-273, in the assay with HOP-18, in the assay on M19-MEL and with SNB-78 was > 100 µM (inactive) in each case. The GI50 with XF498 is > 100 µM (inactive).
Regarding `CC(=O)c1cccc(NC2C(N)C(NC(=O)N(C)C)(C(C)O)C(C)(O)C2(O)COC(=O)c2c(C)cccc2O)c1` (centres undefined), the GI50 with DMS-114, in the assay with LXFL 529, in the assay on M19-MEL and in the assay on SNB-78 was 0.01 µM (active) throughout.
For the compound `COc1cc2c(c(OC)c1)C(=O)C(=O)C(CC1(C)OCCCO1)=C2`, the GI50 in the assay with DLD-1 was 2.93 µM (inactive); in the assay with DMS-114, 3.59 µM (inactive); with DMS-273 it was 13.6 µM (inactive); with HOP-18 it was 10.4 µM (inactive); with LXFL 529, 4.51 µM (inactive); in the assay on M19-MEL, 2.32 µM (inactive). Besides, the GI50 was 17.4 µM (inactive) with RXF 631, 9.95 µM (inactive) with SNB-78 and 12.8 µM (inactive) with XF498.
As to `CC(=O)N1CC(=O)NC1=S`, the GI50 with DLD-1, in the assay on DMS-114, in the assay with DMS-273, with LXFL 529, in the assay on M19-MEL and in the assay with SNB-78 was > 100 µM (inactive) in each case. For the same compound, the GI50 in the assay with XF498 was > 100 µM (inactive).
`O=C(/C=C/c1ccc([N+](=O)[O-])o1)N1CCN(Cc2ccccc2)CC1`: the GI50 with DLD-1 was 5.96 µM (inactive); in the assay on DMS-114 it was 12.2 µM (inactive); in the assay on DMS-273, 9.82 µM (inactive); in the assay with HOP-18, 22.6 µM (inactive); with LXFL 529 it was 6.56 µM (inactive); with M19-MEL, 6.43 µM (inactive). In addition, the GI50 in the assay with SNB-78 is 17.1 µM (inactive); in the assay with XF498 it was 16.7 µM (inactive).
Consider `O=C(Cn1ccnc1[N+](=O)[O-])c1ccccc1`, for which the GI50 in the assay on DLD-1, in the assay with DMS-273, in the assay with LXFL 529, with M19-MEL and with XF498 was > 100 µM (inactive) each time.
With `O=C(O)C1=NN=C(C(=O)O)NN1`, the GI50 in the assay on DLD-1, with DMS-273, in the assay with HOP-18, in the assay on LXFL 529, with M19-MEL and in the assay on SNB-78 was > 100 µM (inactive) each time.
`CCOC(=O)/C(C#N)=C(O)/C(=C\c1ccc(Br)cc1)NC(=O)c1ccccc1`: the GI50 in the assay with DLD-1, in the assay on DMS-114, in the assay with DMS-273, with HOP-18, in the assay on LXFL 529 and in the assay with M19-MEL was > 100 µM (inactive) throughout. Moreover, the GI50 in the assay on RXF 631 and with SNB-78 was > 100 µM (inactive) in each case.
Regarding `CCOc1cc2c(cc1OC)c[n+](C)c1c3cc(OC)c(OC)cc3ccc21`, the GI50 in the assay with DLD-1 was > 78.2 µM (inactive); in the assay on DMS-114 it was 18.2 µM (inactive); with DMS-273 it was 27.8 µM (inactive); in the assay with HOP-18 it was > 48.6 µM (inactive); in the assay with LXFL 529 it was 27 µM (inactive); in the assay with M19-MEL it was > 56.1 µM (inactive). Also, the GI50 in the assay on RXF 631 is 22.6 µM (inactive); in the assay on SNB-78 it was > 57 µM (inactive).
For the compound `COc1cccc(N2C(=O)c3c(c4[nH]c5ccccc5c4c4ccc(C(C)(C)C)cc34)C2=O)c1`, the GI50 in the assay with DLD-1, with DMS-114, in the assay with DMS-273, in the assay with HOP-18, in the assay with LXFL 529 and in the assay on M19-MEL was > 100 µM (inactive) throughout. The GI50 with RXF 631, in the assay with SNB-78 and in the assay with XF498 was > 100 µM (inactive) throughout.
Regarding `COc1ccc2occ(CCC(=O)O)c2c1`, the GI50 with DLD-1, with DMS-114, in the assay with DMS-273, with HOP-18, in the assay with LXFL 529 and in the assay on M19-MEL was > 100 µM (inactive) each time. Besides, the GI50 in the assay on SNB-78 and in the assay with XF498 was > 100 µM (inactive) throughout.
Turning to `Nc1nc2c(c(=O)[nH]1)NC(CO)CN2` (centres undefined), the GI50 in the assay with DLD-1 is > 100 µM (inactive); in the assay on DMS-114, 66.8 µM (inactive); in the assay with DMS-273, > 100 µM (inactive); with HOP-18, > 100 µM (inactive); in the assay on M19-MEL, 63.2 µM (inactive); with XF498, 84.9 µM (inactive).
For `Nc1nnc(NC(=O)C2=NS(=O)(=O)c3cc(S(N)(=O)=O)c(Cl)cc3N2)[nH]1`, the GI50 in the assay on DLD-1, in the assay on DMS-114, in the assay on HOP-18, with LXFL 529, in the assay with M19-MEL and with SNB-78 was > 100 µM (inactive) throughout. For the same compound, the GI50 in the assay on XF498 was > 100 µM (inactive).
As for `Cn1cc2ccccc2c1-c1nc(F)nc(OCC(=O)[C@H]2CCC3[C@@H]4CCC5=CC(=O)CC[C@]5(C)C4[C@@H](O)C[C@@]32C)n1` (some centres undefined), the GI50 with DLD-1 is 8.89 µM (inactive); with DMS-114 it was 7.52 µM (inactive); in the assay on DMS-273 it was 15.6 µM (inactive); with HOP-18 it was 15.5 µM (inactive); in the assay with LXFL 529, 3.72 µM (inactive); in the assay on M19-MEL it was 4.34 µM (inactive). The figures for the GI50 with RXF 631, in the assay with SNB-78 and with XF498 were 2.33 µM (inactive), 13.2 µM (inactive) and 8.65 µM (inactive), respectively.
Turning to `CC[N+](C)(CC)CC(C)(C)C(=O)/C=C/c1ccc(/C=C/C(=O)C(C)(C)C[N+](C)(CC)CC)cc1`, the GI50 with DLD-1, in the assay with DMS-114, in the assay with DMS-273, with LXFL 529, in the assay on M19-MEL and in the assay on RXF 631 was > 100 µM (inactive) each time. The GI50 in the assay with SNB-78 was > 100 µM (inactive).
As for `O=C1CC[C@@H](S(=O)(=O)c2ccccc2)[C@H](/C=C/c2ccccc2)O1`, the GI50 was > 100 µM (inactive) in the assay on DMS-114; > 100 µM (inactive) in the assay with HOP-18; > 100 µM (inactive) with LXFL 529; > 100 µM (inactive) with M19-MEL; < 0.01 µM (active) in the assay with XF498.
Regarding `CCOC(OCC)c1ccc(/C=C/c2cc(OC)c(OC)c(OC)c2)cc1`, the GI50 in the assay with DLD-1 is 16.1 µM (inactive); in the assay on DMS-114, 20.7 µM (inactive); in the assay on DMS-273, 17.6 µM (inactive); with HOP-18 it was 61.4 µM (inactive); in the assay on LXFL 529, 16.1 µM (inactive); in the assay on M19-MEL, 19.9 µM (inactive). In addition, the GI50 in the assay on RXF 631 was 20 µM (inactive); in the assay with SNB-78, 27 µM (inactive).
For the compound `C=C(COC(C)=O)CC(/C=C(\C)CC/C=C(\C)CO)OC(C)=O` (centres undefined), the GI50 in the assay on DLD-1, in the assay on DMS-273, in the assay on LXFL 529, in the assay with M19-MEL, in the assay on RXF 631 and with SNB-78 was > 100 µM (inactive) throughout. Also, in the assay with XF498, the GI50 was > 100 µM (inactive).
As for `COc1ccc2[nH]c3c4c(cc(-c5ccccc5)c3c2c1)C(=O)N(c1ccccc1)C4=O`, the GI50 in the assay with DLD-1 was > 53 µM (inactive); in the assay with DMS-114, > 47.8 µM (inactive); in the assay with DMS-273 it was 2.07 µM (inactive); in the assay on HOP-18, 24.7 µM (inactive); in the assay on LXFL 529 it was 18.1 µM (inactive); with M19-MEL, 30.5 µM (inactive). Moreover, the GI50 with SNB-78 was 27.2 µM (inactive).
In the case of `CC1Cc2c(N)nc(NN)nc2NC1=O` (centres undefined), the GI50 in the assay on DLD-1 is > 100 µM (inactive); in the assay with DMS-114 it was > 100 µM (inactive); in the assay with DMS-273, > 100 µM (inactive); with HOP-18, > 100 µM (inactive); in the assay with M19-MEL, > 100 µM (inactive); with XF498, 3.94 µM (inactive).
Take `CN(C)CCS/C(=N\c1ccccc1)N1C=COC=C1`: the GI50 in the assay with DLD-1 is 17.4 µM (inactive); with DMS-114, 14.6 µM (inactive); with DMS-273, 18.4 µM (inactive); in the assay with HOP-18, 59.8 µM (inactive); with LXFL 529, 16.4 µM (inactive); in the assay on M19-MEL, 17.5 µM (inactive). Besides, the results for the GI50 with SNB-78 and with XF498 were 26.9 µM (inactive) and 31.2 µM (inactive), respectively.
